Values joined by “and” are separate entries in the source; they are usually repeats but may differ in a detail not shown here. Identical values can stand only once. Inconclusive results and toxic doses are left out.
Test system: BDF1 mice, P388 leukemia ip, median survival T/C
Assay: NCI In Vivo Anticancer Drug Screen. Data for tumor model P388 Leukemia (intraperitoneal) in B6D2F1 (BDF1) mice
Conditions: endpoint: median survival time, higher = longer survival
In short: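 Survival ratio, drug arm over vehicle arm, in mice with a transplanted tumour.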

[1] = dose: 50.0 mg/kg/injection, schedule: Q01DX009 (ip), vehicle: saline with Tween-80
[2] = dose: 100.0 mg/kg/injection, schedule: Q01DX009 (ip), vehicle: saline with Tween-80
[3] = dose: 200.0 mg/kg/injection, schedule: Q01DX009 (ip), vehicle: saline with Tween-80
[4] = dose: 400.0 mg/kg/injection, schedule: Q01DX009 (ip), vehicle: saline with Tween-80
[5] = dose: 3.12 mg/kg/injection, schedule: Q01DX009 (ip), vehicle: Klucel (hydroxypropylcellulose) (HPC)
[6] = dose: 6.25 mg/kg/injection, schedule: Q01DX009 (ip), vehicle: Klucel (hydroxypropylcellulose) (HPC)
[7] = dose: 12.5 mg/kg/injection, schedule: Q01DX009 (ip), vehicle: Klucel (hydroxypropylcellulose) (HPC)
[8] = dose: 25.0 mg/kg/injection, schedule: Q01DX009 (ip), vehicle: Klucel (hydroxypropylcellulose) (HPC)
[9] = dose: 100.0 mg/kg/injection, schedule: Q04DX003 (ip), vehicle: saline with Tween-80
[10] = dose: 200.0 mg/kg/injection, schedule: Q04DX003 (ip), vehicle: saline with Tween-80
[11] = dose: 400.0 mg/kg/injection, schedule: Q04DX003 (ip), vehicle: saline with Tween-80

## CCCC(=O)NC1=C(N2CC2)C(=O)C(NC(=O)CCC)=C(N2CC2)C1=O
dose: 0.44 mg/kg/injection, schedule: Q04DX003 (ip), vehicle: saline with Tween-80
  T/C: 104 % of control
dose: 0.66 mg/kg/injection, schedule: Q04DX003 (ip), vehicle: saline with Tween-80
  T/C: 109 % of control
dose: 1.0 mg/kg/injection, schedule: Q01DX009 (ip), vehicle: saline
  T/C: 213 % of control
dose: 1.0 mg/kg/injection, schedule: Q04DX003 (ip), vehicle: saline with Tween-80
  T/C: 122 % of control
dose: 1.5 mg/kg/injection, schedule: Q04DX003 (ip), vehicle: saline with Tween-80
  T/C: 100 % of control
dose: 2.0 mg/kg/injection, schedule: Q01DX009 (ip), vehicle: saline
  T/C: 200 % of control
dose: 2.5 mg/kg/injection, schedule: Q04DX003 (ip), vehicle: saline with Tween-80
  T/C: 150 % of control
dose: 4.0 mg/kg/injection, schedule: Q01DX009 (ip), vehicle: saline
  T/C: 285 % of control
dose: 5.0 mg/kg/injection, schedule: Q04DX003 (ip), vehicle: saline with Tween-80
  T/C: 204 % of control
dose: 10.0 mg/kg/injection, schedule: Q04DX003 (ip), vehicle: saline with Tween-80
  T/C: 250 % of control

## CCOC(=O)C1CC1c1ccccc1 (centres undefined)
[1]
  T/C: 110 % of control
[2]
  T/C: 115 % of control and 121 % of control
[3]
  T/C: 119 % of control
[4]
  T/C: 112 % of control

## CN(C)CCCCc1cn(-c2ccccc2)c2ccccc12
dose: 12.5 mg/kg/injection, schedule: Q01DX009 (ip), vehicle: saline
  T/C: 105 % of control
dose: 27.5 mg/kg/injection, schedule: Q01DX001 (ip), vehicle: saline
  T/C: 100 % of control
dose: 33.0 mg/kg/injection, schedule: Q01DX009 (ip), vehicle: saline
  T/C: 109 % of control
dose: 50.0 mg/kg/injection, schedule: Q01DX009 (ip), vehicle: saline
  T/C: 104 % of control
dose: 55.0 mg/kg/injection, schedule: Q01DX001 (ip), vehicle: saline
  T/C: 108 % of control
dose: 110.0 mg/kg/injection, schedule: Q01DX001 (ip), vehicle: saline
  T/C: 108 % of control

## C[n+]1ccccc1/C=C/c1cccc(O)c1
[5]
  T/C: 96 % of control
[6]
  T/C: 96 % of control
[7]
  T/C: 102 % of control
[8]
  T/C: 102 % of control

## COc1cc2c3c(c1)-c1nc4ccccc4cc1CN3CCC2
dose: 12.5 mg/kg/injection, schedule: Q04DX003 (ip), vehicle: other
  T/C: 100 % of control
dose: 25.0 mg/kg/injection, schedule: Q04DX003 (ip), vehicle: other
  T/C: 113 % of control
dose: 50.0 mg/kg/injection, schedule: Q04DX003 (ip), vehicle: other
  T/C: 109 % of control

## COC1=C(C)C(=O)c2c(c(COC(N)=O)c3n2CC2C3N2C)C1=O (centres undefined)
dose: 2.0 mg/kg/injection, schedule: Q01DX009 (ip), vehicle: saline sonified
  T/C: 120 % of control

## C/C(Br)=C(/Br)C(=O)O
[1]
  T/C: 94 % of control
[2]
  T/C: 97 % of control
[3]
  T/C: 87 % of control

## NC(=O)c1cc(=S)[nH]c2nc(Cl)nc(N)c12
dose: 100.0 mg/kg/injection, schedule: Q04DX002 (ip), vehicle: saline with Tween-80
  T/C: 120 % of control

## Nc1ncc([N+](=O)[O-])c(Cl)n1
[1]
  T/C: 103 % of control
[2]
  T/C: 111 % of control

## CC(=O)OC1=CCC(C(C)(C)C)CC1 (centres undefined)
dose: 5.15 mg/kg/injection, schedule: Q04DX003 (ip), vehicle: saline
  T/C: 100 % of control
[6]
  T/C: 100 % of control
dose: 10.31 mg/kg/injection, schedule: Q04DX003 (ip), vehicle: saline
  T/C: 90 % of control
[7]
  T/C: 100 % of control
dose: 20.62 mg/kg/injection, schedule: Q04DX003 (ip), vehicle: saline
  T/C: 90 % of control
[8]
  T/C: 100 % of control
dose: 35.0 mg/kg/injection, schedule: Q01DX009 (ip), vehicle: Klucel (hydroxypropylcellulose) (HPC)
  T/C: 91 % of control and 100 % of control
dose: 41.25 mg/kg/injection, schedule: Q04DX003 (ip), vehicle: Klucel (hydroxypropylcellulose) (HPC)
  T/C: 87 % of control
dose: 55.0 mg/kg/injection, schedule: Q01DX009 (ip), vehicle: Klucel (hydroxypropylcellulose) (HPC)
  T/C: 100 % of control
dose: 80.0 mg/kg/injection, schedule: Q01DX009 (ip), vehicle: Klucel (hydroxypropylcellulose) (HPC)
  T/C: 87 % of control

## Nc1ccc2c(c1)Cc1cc(Br)ccc1-2
dose: 100.0 mg/kg/injection, schedule: Q04DX003 (ip), vehicle: Klucel (hydroxypropylcellulose) (HPC)
  T/C: 104 % of control
dose: 200.0 mg/kg/injection, schedule: Q04DX003 (ip), vehicle: Klucel (hydroxypropylcellulose) (HPC)
  T/C: 100 % of control
dose: 400.0 mg/kg/injection, schedule: Q04DX003 (ip), vehicle: Klucel (hydroxypropylcellulose) (HPC)
  T/C: 100 % of control

## CC[n+]1c(-c2ccccc2)c2cc(N)ccc2c2ccc(N)cc21 (tested in a mixture with another compound)
dose: 25.0 mg/kg/injection, schedule: Q01DX009 (ip), vehicle: other
  T/C: 112 % of control
dose: 50.0 mg/kg/injection, schedule: Q01DX009 (ip), vehicle: other
  T/C: 112 % of control

## Cc1ccnc(NS(=O)(=O)c2ccc(N=Nc3nc4[nH]c(N)nc(=S)c4[nH]3)cc2)n1
dose: 1.56 mg/kg/injection, schedule: Q01DX009 (ip), vehicle: Klucel (hydroxypropylcellulose) (HPC)
  T/C: 151 % of control
[5]
  T/C: 112 % of control
[6]
  T/C: 108 % of control

## [F][Fe]([F])([F])([F])([F])[F]
[1]
  T/C: 95 % of control
[2]
  T/C: 101 % of control

## CCN(CC)CCCC(C)Nc1c2ccc(Cl)cc2nc2cc(Cl)ccc12 (centres undefined)
[7]
  T/C: 120 % of control

## COc1ccc(OC(=O)CCCl)cc1
[9]
  T/C: 100 % of control
[10]
  T/C: 100 % of control
[11]
  T/C: 113 % of control

## O=C(Nc1cccc2c(OC(=O)C(Cl)Cl)c(N=Nc3ccc(S(=O)(=O)Nc4nccs4)cc3)cc(N=Nc3ccc(S(=O)(=O)Nc4nccs4)cc3)c12)C(Cl)Cl (tested in a mixture with another compound)
dose: 50.0 mg/kg/injection, schedule: Q01DX005 (ip), vehicle: saline with Tween-80
  T/C: 103 % of control
[1]
  T/C: 110 % of control
dose: 100.0 mg/kg/injection, schedule: Q01DX005 (ip), vehicle: saline with Tween-80
  T/C: 103 % of control
[2]
  T/C: 124 % of control

## CCCN(CCC)CC(O)c1cc(C(F)(F)F)nc2c(C(F)(F)F)cccc12 (centres undefined)
[1]
  T/C: 103 % of control
[2]
  T/C: 100 % of control
[3]
  T/C: 97 % of control

## O=C1C(Cl)CCCCC1Cl (centres undefined)
dose: 50.0 mg/kg/injection, schedule: Q01DX009 (ip), vehicle: Klucel (hydroxypropylcellulose) (HPC)
  T/C: 100 % of control
dose: 100.0 mg/kg/injection, schedule: Q01DX009 (ip), vehicle: Klucel (hydroxypropylcellulose) (HPC)
  T/C: 100 % of control
dose: 200.0 mg/kg/injection, schedule: Q01DX009 (ip), vehicle: Klucel (hydroxypropylcellulose) (HPC)
  T/C: 115 % of control

## CCOC(=O)CCCc1ccc(N=NN(C)C)cc1
dose: 150.0 mg/kg/injection, schedule: Q04DX003 (ip), vehicle: saline
  T/C: 95 % of control

## C=CS(=O)(=O)Cc1ccccc1
dose: 25.0 mg/kg/injection, schedule: Q04DX003 (ip), vehicle: saline with Tween-80
  T/C: 104 % of control
dose: 50.0 mg/kg/injection, schedule: Q04DX003 (ip), vehicle: saline with Tween-80
  T/C: 93 % of control

## CCCNC(=O)Nc1cc(C(F)(F)F)ccc1Cl
[9]
  T/C: 100 % of control
[10]
  T/C: 100 % of control
[11]
  T/C: 100 % of control

## Nc1nc(N)c2cc(S(=O)c3ccc4ccccc4c3)ccc2n1 (centres undefined)
[1]
  T/C: 95 % of control
[2]
  T/C: 95 % of control
[3]
  T/C: 104 % of control

## CCOC1=CCCCC1
dose: 100.0 mg/kg/injection, schedule: Q01DX009 (ip), vehicle: saline
  T/C: 113 % of control
dose: 200.0 mg/kg/injection, schedule: Q01DX009 (ip), vehicle: saline
  T/C: 115 % of control and 122 % of control
dose: 400.0 mg/kg/injection, schedule: Q01DX009 (ip), vehicle: saline
  T/C: 118 % of control

## COc1cc2c(c(OC)c1OC)CCc1cnoc1-2
[1]
  T/C: 107 % of control
[2]
  T/C: 95 % of control
[3]
  T/C: 97 % of control
[4]
  T/C: 92 % of control

## CCOC(=O)CCC(NC(=O)N(CCCl)CCCl)C(=O)OCC (centres undefined)
dose: 132.0 mg/kg/injection, schedule: Q04DX003 (ip), vehicle: saline with Tween-80
  T/C: 175 % of control
[10]
  T/C: 204 % of control
dose: 300.0 mg/kg/injection, schedule: Q04DX003 (ip), vehicle: saline with Tween-80
  T/C: 183 % of control

## COc1ccccc1NC(=O)Nc1ccc(N(C)C)cc1
[9]
  T/C: 90 % of control
[10]
  T/C: 118 % of control
[11]
  T/C: 90 % of control

## c1ccc(C2=C([P+](c3ccccc3)(c3ccccc3)c3ccccc3)CCN2)cc1
dose: 12.5 mg/kg/injection, schedule: Q01DX009 (ip), vehicle: saline with Tween-80
  T/C: 100 % of control

## CCOC(=O)c1cc(CC)sc1N
[9]
  T/C: 95 % of control
[10]
  T/C: 108 % of control
[11]
  T/C: 108 % of control
